Experimental data from US12599588B2, “Inhibitor for V-ATPase activity, antibacterial agent, medicine, antibacterial method and screening method” (Japan Science and Technology Agency, priority 2019, dated 2026).
“Also recorded” adds a separate entry of the source. Like-named read-outs stand apart in the source and are kept apart here.

How the values were obtained:
E. faecium of VRE = assay: Test in VRE-infected mice, number of live VRE in the intestine; type: in vivo; settings: antibiotic-treated mice infected with E. faecium VRE
Method: Mice treated with antibiotics were infected with E. faecium of VRE, and V-161 was administered to the mice.

Clostridium difficile = assay: Growth inhibition of pathogenic bacteria, C. difficile; type: cell-based; settings: pH 6.5, pH 7.0, pH 7.5; OD600
Method: (§1) As the pathogenic bacteria, Enterococcus faecalis and Enterococcus faecium that are vancomycin-resistant enterococci (VRE), and Clostridium difficile that leads to deterioration of intestinal environment and is resistant to multiple drugs were prepared. The VRE were cultured by using culture media at pH 7.0, pH 7.5, and pH 8.0, the C. difficile was cultured by using culture media at pH 6.5, pH 7.0, and pH 7.5, and the difference in the number of bacteria was confirmed by measuring OD600.
(§2) The data of pH 7.0, pH 7.5, and pH 8.0 are shown in order from the top of FIG. 6. […] The data of pH 6.5, pH 7.0, and pH 7.5 are shown in order from the top of FIG. 7.

[1] = biological target: T1, V-ATPase (purified from enterococci or recombinant E. coli) (Enterococcus hirae, UniProt P43439+P43457); assay: ATPase activity measurement (molybdenum blue method, primary screening); type: biochemical
T1 construct: made in house; host or cells: Enterococcus hirae (native) or recombinant E. coli
Method: The ATPase activity can be measured by a molybdenum blue method for measuring absorbance of the inorganic phosphoric acid generated by hydrolysis of ATP. As the reaction conditions, conditions for measuring the ATPase activity can be adopted. As the buffer solution used in the reaction, Tris-HCl buffer can be used. The reaction time is usually 10 to 60 minutes, but can be appropriately adjusted depending on the air temperature or the like. The reaction of V-ATPase is terminated with the addition of a surfactant such as sodium dodecyl sulfate (SDS), and into which a color-developing liquid (such as ferrous sulfate) is added to give a color, and then the concentration of the inorganic phosphoric acid can be calculated by the measurement of the absorbance at a wavelength of 650 nm.
From the concentration of inorganic phosphoric acid calculated above, the inhibition rate of the V-ATPase reaction can be calculated. That is, a graph is created in which the inhibition rate is plotted on the vertical axis and the concentration of compound is plotted on the horizontal axis, and the concentration (IC50) at which the inhibition rate becomes 50% is determined. As the concentration of compound at which IC50 is obtained becomes lower, a higher V-ATPase inhibitory effect is exerted with a small amount, and accordingly, the compound can be taken as a candidate compound for the inhibitor for V-ATPase activity.
The V-ATPase was prepared by the method disclosed in the following papers. • Paper 1: Takeshi Murata, et. al, “Purification and Reconstitution of Na^+-translocating Vacuolar ATPase from Enterococcus hirae”, J. Biol. Chem. 272, 24885-24890 (1997) • Paper 2: Takeshi Murata, et. al, “Torque Generation of Enterococcus hirae V-ATPase”, J. Biol. Chem. 289, 31212-31223 (2014)
ATPase activity measurement was conducted by a molybdenum blue method that quantifies the inorganic phosphoric acid generated by hydrolysis of ATP with the use of absorbance measurement. The measurement was conducted in a 96-well plate, and 0.05% DDM (n-dodecyl-β-D-maltoside), 10 μg/mL of V-ATPase (purified from enterococci or recombinant E. coli), and 20 μM of a compound were added into a buffer (100 mM Tris-HCl at pH 8.5, 100 mM NaCl, 5 mM MgSO4, 10% glycerol). Into the mixture obtained above, ATP was added so as to be 5 mM, the whole amount was set to 100 μL, the reaction was started while stirring the mixture with a stirrer, and the reaction time was set to 30 minutes. Since the ATPase activity changes largely depending on the reaction temperature, the reaction time was adjusted within the range of 10 to 60 minutes corresponding to the air temperature on the day of the experiment. With the addition of 50 μL of 20% SDS, the V-ATPase was denatured and the reaction was terminated, and into the resultant mixture, 75 μL of color-developing liquid (5% ferrous sulfate, 1.6% ammonium molybdate, and 1 M sulfuric acid) was added to give a color. Immediately, the absorbance at a wavelength of 650 nm was measured by using a plate reader. Four kinds of KH2PO4 aqueous solutions of 0.2 mM, 0.5 mM, 1.0 mM, and 1.5 mM were reacted with MQ (ultrapure water) in the same experiment system, and then the activity of V-ATPase was measured by determining the concentration of generated inorganic phosphoric acid with the use of a created calibration curve. In this regard, a compound that had inhibited 50% or more of the activity of V-ATPase was diluted stepwisely so as to have a concentration of 10 μM, 5 μM, 2 μM, 1 μM, 500 nM, 200 nM, 100 nM, and 50 nM, and the measurement similar to the above was conducted.
From the results of the above measurement of ATPase activity, the inhibition rate was calculated comparing the decrease in the activity by assuming the activity under the condition of no compound addition as 100. A graph was created in which the inhibition rate was plotted on the vertical axis and the concentration of compound was plotted on the horizontal axis (FIG. 2). […]

[2] = system: Enterococcus faecalis (vancomycin-resistant enterococci, VRE); assay: Growth inhibition of pathogenic bacteria, VRE E. faecalis; type: cell-based; settings: pH 7.0, pH 7.5, pH 8.0; OD600
Method: as §1, §2

[3] = system: Enterococcus faecium (vancomycin-resistant enterococci, VRE); assay: Growth inhibition of pathogenic bacteria, VRE E. faecium; type: cell-based; settings: pH 7.0, pH 7.5, pH 8.0; OD600
Method: as §1, §2

[4] = Oral administration to mice (intestinal environment), toxicity observation; type: in vivo; settings: 20 mM suspension, 0.5 ml orally once a day, five days
Method: To each of four mice, 0.5 ml of the suspension was orally administered once a day, and on five days after the start of administration, the mice were dissected and the feces and intestinal tract contents were collected, and the intestinal pH and sodium ion concentration were measured.

[5] = system: enterococci (Enterococcus hirae); assay: Growth experiment of enterococci (secondary screening), OD600 at pH 7.0 and pH 8.5; type: cell-based; set-up: Growth inhibition rate (%): concentration or dose not given beside the values; settings: for Specificity: growth inhibition at pH 8.5 versus pH 7.0
Method: In the culture of enterococci (Enterococcus hirae), a culture medium in which the Na^+ concentration had been adjusted by adding a buffer solution using 2% tryptone and 1% yeast extract as the base was used. In a case of adding glucose, glucose prepared in a 50% solution was added so as to be 1% into the culture medium when the culture medium was used. The whole amount 200 μL was cultured using a 96-well plate, and OD600 was measured every hour by using a plate reader. By using culture media at pH 7.0 and pH 8.5, the effect of pH on the growth was observed. In culture of bacteria, the pH often fluctuates largely due to the decomposition of the sugars required for the growth, and it is extremely important to maintain a constant pH in this experiment, and therefore, the pH was maintained constant with the addition of a buffer suitable for each pH. Since the V-ATPase is expressed only under an alkaline condition, the growth inhibition observed with the addition of an inhibitor is largely dependent on the pH.
IC50 and the like of the above 24 kinds of compounds are described in the following table. […] Furthermore, with respect to the symbol “n.a.”, a compound having a growth inhibition rate of 60% or more at pH 7.0 is determined that there was the growth inhibition. In addition, the growth inhibition rate of a compound having no clear inhibition is also recorded for reference.

[6] = IC50 (nM), Table 2, inhibition of V-ATPase ATPase activity, pH 8.5 buffer
[7] = high affinity for V-ATPase (IC50), unit inferred
[8] = Table 2, E. hirae growth, pH not stated (media pH 7.0 and pH 8.5)
[9] = Table 2, inhibition of V-ATPase ATPase activity, pH 8.5 buffer, read-out: IC50
[10] = IC50 (nM), Table 4, (1,2,4-oxadiazol-3-yl)phenyl derivatives
[11] = Table 4, (1,2,4-oxadiazol-3-yl)phenyl derivatives

SMILES: Cc1ccc2nc(-c3ccc(N(C)C)cc3)[nH]c2c1 [Compound V-161, N,N-dimethyl-4-(6-methyl-1H-benzo[d]imidazol-2-yl)aniline]
- decrease of VRE in the cecum, large intestine, and feces versus controls (FIG. 10) (E. faecium of VRE; cecum, large intestine, feces): around 50%
- decrease of VRE in the small intestine versus controls (FIG. 10) (E. faecium of VRE; small intestine): 97%
- growth of C. difficile (FIG. 7) (Clostridium difficile): inhibited even under a neutral or acidic condition
- IC50 [1, 6]: 85 nM
- IC50 ([1]; IC50 (nM), Table 3, 2-phenyl benzimidazole derivatives): 85 nM
- IC50 [1, 7]: ≤ 400 nM
- growth of E. faecalis (VRE) (FIG. 6) [2]: inhibited in a pH-dependent manner
- growth of E. faecium (VRE) (FIG. 6) [3]: inhibited in a pH-dependent manner; also recorded: more strongly affected by the V-161 than E. faecalis
- toxicity in mice [4]: toxicity was not observed
- non-specific inhibition / non-specific bond [5]: no non-specific inhibition
- Growth inhibition rate (%) [5, 8]: 88.7%
- Specificity ([5]; Table 2): + (there was no growth inhibition at pH 7.0 but was the growth inhibition at pH 8.5)
- Growth inhibition rate (%) ([5]; Table 3, 2-phenyl benzimidazole derivatives): 88.7%
- Specificity ([5]; Table 3): + (there was no growth inhibition at pH 7.0 but was the growth inhibition at pH 8.5)

SMILES: O=C(c1cnc(Nc2nc3ccccc3o2)nc1)c1cc(Cl)cc(Cl)c1O [Compound V-207]
- IC50 [1, 9]: 5000 nM
- Growth inhibition rate (%) [5, 8]: 12.0%
- Specificity ([5]; Table 2): − (there was no growth inhibition in any case)

SMILES: Cc1ccccc1OCc1nc(-c2ccc(NC(=O)c3cccs3)cc2)no1 [Compound V-234, N-(4-(5-((o-tolyloxy)methyl)-1,2,4-oxadiazol-3-yl)phenyl)thiophene-2-carboxamide]
- IC50 [1, 6]: 40 nM
- IC50 [1, 10]: 40 nM
- IC50 [1, 7]: ≤ 400 nM
- non-specific inhibition / non-specific bond [5]: no non-specific inhibition
- Growth inhibition rate (%) [5, 8]: 75.5%
- Specificity ([5]; Table 2): + (there was no growth inhibition at pH 7.0 but was the growth inhibition at pH 8.5)
- Growth inhibition rate (%) [5, 11]: 75.5%

SMILES: CCCc1ccc(OCc2nc(-c3ccc(NC(=O)c4cccs4)cc3)no2)cc1 [Compound V-234-01]
- IC50 [1, 10]: 50 nM
- Growth inhibition rate (%) [5, 11]: 76.9%

SMILES: Cc1cccc(OCc2nc(-c3ccc(NC(=O)c4cccs4)cc3)no2)c1C [Compound V-234-02]
- IC50 [1, 10]: 40 nM
- Growth inhibition rate (%) [5, 11]: 74.8%

SMILES: Cc1ccc(C(=O)Nc2ccc(-c3noc(COc4cccc(C)c4C)n3)cc2)s1 [Compound V-234-03]
- IC50 [1, 10]: 6 nM
- Growth inhibition rate (%) [5, 11]: 72.0%

SMILES: O=C1N=C(O)N=C(O)C1=Cc1ccc(-c2ccc([N+](=O)[O-])cc2)o1 [Compound V-278]
- IC50 [1, 6]: 250 nM
- Growth inhibition rate (%) [5, 8]: 44.4%
- Specificity ([5]; Table 2): + (there was no growth inhibition at pH 7.0 but was the growth inhibition at pH 8.5)

SMILES: CCCOc1ccc(/C=N/Nc2nc3ccccc3[nH]2)c(OCCC)c1 [Compound V-289]
- IC50 [1, 9]: 600 nM
- Growth inhibition rate (%) [5, 8]: 55.0%
- Specificity ([5]; Table 2): + (there was no growth inhibition at pH 7.0 but was the growth inhibition at pH 8.5)
